Test results reported in ChEMBL document CHEMBL3259772, “Identification and characterization of small molecule modulators of the Epstein-Barr virus-induced gene 2 (EBI2) receptor” (J Med Chem, 2014).

Legend:
Format in all cases: ADME, organism-based
Mus musculus = experiment: Total blood clearance in C57BL/6 mouse at 1 mg/kg, iv administered as cassette dose; design: dose 1 mg/kg, route intravenous; details: in vivo
[1] = Terminal blood half life in C57BL/6 mouse at 1 mg/kg, iv administered as cassette dose; design: dose 1 mg/kg, route intravenous; details: read-out: beta t1/2 (converted)
[2] = Apparent volume of distribution at steady state in C57BL/6 mouse at 1 mg/kg, iv administered as cassette dose; design: dose 1 mg/kg, route intravenous; details: in vivo, read-out: Vdss(app)
[3] = AUC (infinity) in C57BL/6 mouse at 1 mg/kg, iv administered as cassette dose; design: time infinity, dose 1 mg/kg, route intravenous; details: plasma
[4] = AUC (infinity) in C57BL/6 mouse at 5 mg/kg, po administered as cassette dose; design: time infinity, dose 5 mg/kg, route oral; details: plasma
[5] = Cmax in C57BL/6 mouse at 5 mg/kg, po administered as cassette dose; design: dose 5 mg/kg, route oral; details: in vivo
[6] = Tmax in C57BL/6 mouse at 5 mg/kg, po administered as cassette dose; design: dose 5 mg/kg, route oral; details: in vivo
[7] = Oral bioavailability in C57BL/6 mouse at 5 mg/kg administered as cassette dose; details: in vivo

Row | SMILES | CL (Mus musculus) [µL/min/mg] | half-life [1] [h] | Vd [2] [L/kg] | AUC(0-inf) [3] [µM·h] | AUC(0-inf) [4] [µM·h] | Cmax [5] [nM] | Tmax [6] [h] | bioavailability [7] [%]
1 | COc1ccc(C(=O)N2CCN(C(=O)/C=C/c3ccc(Br)cc3)CC2)cc1 | 16 | 1.1 | 1.4 | 2.44 | 3.61 | 835 | 1 | 49
2 | COc1ccc(/C=C/C(=O)N2CCN(C(=O)c3ccc(OC)cc3)CC2)cc1 | 52 | 0.2 | 0.8 | 0.841 |  |  |  | 
